Data reported in PubChem BioAssay AID248 (DTP/NCI, 2004).
Several values for one entry are separate records, joined by “and”; a condition that tells them apart may be missing. Equal values may be shown once. Toxic doses and inconclusive results are not listed. Rule as the data show it: active = T/C of 150% or more; inactive = T/C below 125%.

Tested on: L1210 leukemia ip in BDF1 mice, survival T/C
Assay: NCI In Vivo Anticancer Drug Screen. Data for tumor model L1210 Leukemia (intraperitoneal) in B6D2F1 (BDF1) mice
Conditions: endpoint: mean survival time, higher = longer survival
Outline: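 Antitumor effect is assessed in tumor-bearing animals. Survival in the compound arm is compared with a vehicle-dosed control arm and expressed as their quotient.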

[1] = dose: 100.0 mg/kg/injection, schedule: Q04DX003 (ip), vehicle: saline with Tween-80
[2] = dose: 200.0 mg/kg/injection, schedule: Q04DX003 (ip), vehicle: saline with Tween-80
[3] = dose: 400.0 mg/kg/injection, schedule: Q04DX003 (ip), vehicle: saline with Tween-80
[4] = dose: 100.0 mg/kg/injection, schedule: Q01DX009 (ip), vehicle: saline with Tween-80
[5] = dose: 200.0 mg/kg/injection, schedule: Q01DX009 (ip), vehicle: saline with Tween-80
[6] = dose: 400.0 mg/kg/injection, schedule: Q01DX009 (ip), vehicle: saline with Tween-80
[7] = dose: 100.0 mg/kg/injection, schedule: Q04DX003 (ip), vehicle: Klucel (hydroxypropylcellulose) (HPC)
[8] = dose: 200.0 mg/kg/injection, schedule: Q04DX003 (ip), vehicle: Klucel (hydroxypropylcellulose) (HPC)
[9] = dose: 12.5 mg/kg/injection, schedule: Q01DX009 (ip), vehicle: saline
[10] = dose: 25.0 mg/kg/injection, schedule: Q01DX009 (ip), vehicle: saline

Measured: T/C

CCCCCCCCCCP(=O)(CCCC)CCCC
inactive: dose: 1.56 mg/kg/injection, schedule: Q01DX009 (ip), vehicle: Klucel (hydroxypropylcellulose) (HPC) 92 % of control | dose: 3.12 mg/kg/injection, schedule: Q01DX009 (ip), vehicle: Klucel (hydroxypropylcellulose) (HPC) 95 % of control | dose: 6.25 mg/kg/injection, schedule: Q01DX009 (ip), vehicle: Klucel (hydroxypropylcellulose) (HPC) 97 % of control | dose: 12.5 mg/kg/injection, schedule: Q01DX009 (ip), vehicle: Klucel (hydroxypropylcellulose) (HPC) 95 % of control | dose: 100.0 mg/kg/injection, schedule: Q01DX009 (ip), vehicle: Klucel (hydroxypropylcellulose) (HPC) 100 % of control

CC(=O)NC1CCCCC1
inactive: [1] 95 % of control | [2] 98 % of control | [3] 92 % of control

Cn1c(=O)c2[n-]cnc2n(C)c1=O.Cn1c(=O)c2[n-]cnc2n(C)c1=O.[Pt+2]
inactive: dose: 25.0 mg/kg/injection, schedule: Q04DX003 (ip), vehicle: saline with Tween-80 102 % of control | dose: 50.0 mg/kg/injection, schedule: Q04DX003 (ip), vehicle: saline with Tween-80 98 % of control | [1] 98 % of control

O=c1[nH]c(C(F)(F)F)c(CCCCc2ccccc2)c(=O)[nH]1
inactive: dose: 50.0 mg/kg/injection, schedule: Q01DX001 (ip), vehicle: Klucel (hydroxypropylcellulose) (HPC) 105 % of control | dose: 100.0 mg/kg/injection, schedule: Q01DX001 (ip), vehicle: Klucel (hydroxypropylcellulose) (HPC) 94 % of control | dose: 200.0 mg/kg/injection, schedule: Q01DX001 (ip), vehicle: Klucel (hydroxypropylcellulose) (HPC) 90 % of control

Oc1ccccc1C=Nc1ccccc1O.[Cu+2]
inactive: dose: 100.0 mg/kg/injection, schedule: Q01DX001 (ip), vehicle: other 107 % of control | dose: 200.0 mg/kg/injection, schedule: Q01DX001 (ip), vehicle: other 116 % of control

CN(C)c1cc2c3c(c1)CCCN3CCC2
inactive: dose: 6.25 mg/kg/injection, schedule: Q01DX001 (ip), vehicle: saline 108 % of control | dose: 12.5 mg/kg/injection, schedule: Q01DX001 (ip), vehicle: saline 101 % of control

c1ccc([P+](c2ccccc2)(c2ccccc2)C2CCC2)cc1
inactive: dose: 9.4 mg/kg/injection, schedule: Q01DX009 (ip), vehicle: saline with Tween-80 121 % of control | dose: 18.8 mg/kg/injection, schedule: Q01DX009 (ip), vehicle: saline with Tween-80 88 % of control

Cc1ccc(N=Nc2c(C)nn(C(N)=S)c2-c2ccccc2)cc1
inactive: dose: 75.0 mg/kg/injection, schedule: Q01DX001 (ip), vehicle: saline 94 % of control | dose: 150.0 mg/kg/injection, schedule: Q01DX001 (ip), vehicle: saline 90 % of control

CCC(=O)Nc1ccc(Cl)c(Cl)c1
inactive: [1] 95 % of control | [2] 93 % of control | [3] 92 % of control

CCOC(=O)c1ccc(N(CC(=O)CN=[N+]=[N-])S(=O)(=O)c2ccc(C)cc2)cc1
inactive: [4] 96 % of control | [5] 96 % of control | [6] 89 % of control

CCOC(=O)CCc1c(C(=O)OCC)[nH]c(C)c1CC(=O)OC
inactive: [7] 98 % of control | [8] 101 % of control | dose: 400.0 mg/kg/injection, schedule: Q04DX003 (ip), vehicle: Klucel (hydroxypropylcellulose) (HPC) 101 % of control

O=C1NC(=O)C(=Cc2ccccc2[N+](=O)[O-])C(=O)N1
inactive: dose: 100.0 mg/kg/injection, schedule: Q01DX001 (ip), vehicle: carboxymethylcellulose (CMC) 93 % of control | dose: 200.0 mg/kg/injection, schedule: Q01DX001 (ip), vehicle: carboxymethylcellulose (CMC) 91 % of control | dose: 400.0 mg/kg/injection, schedule: Q01DX001 (ip), vehicle: carboxymethylcellulose (CMC) 87 % of control

CCOC(=O)c1ccc(NC(=O)N(C2CCCCC2)C2CCCCC2)cc1
inactive: dose: 100.0 mg/kg/injection, schedule: Q01DX001 (ip), vehicle: saline with Tween-80 86 % of control | [4] 101 % of control | dose: 100.0 mg/kg/injection, schedule: Q04DX002 (ip), vehicle: saline with Tween-80 103 % of control and 90 % of control | dose: 200.0 mg/kg/injection, schedule: Q01DX001 (ip), vehicle: saline with Tween-80 86 % of control | [5] 92 % of control | dose: 200.0 mg/kg/injection, schedule: Q04DX002 (ip), vehicle: saline with Tween-80 94 % of control | [2] 94 % of control | dose: 400.0 mg/kg/injection, schedule: Q01DX001 (ip), vehicle: saline with Tween-80 93 % of control | [6] 101 % of control | dose: 400.0 mg/kg/injection, schedule: Q04DX002 (ip), vehicle: saline with Tween-80 94 % of control and 90 % of control | [3] 91 % of control

c1ccc2c3c(ccc2c1)-c1oncc1CC3
inactive: dose: 100.0 mg/kg/injection, schedule: Q01DX001 (ip), vehicle: saline 95 % of control | dose: 200.0 mg/kg/injection, schedule: Q01DX001 (ip), vehicle: saline 103 % of control | dose: 400.0 mg/kg/injection, schedule: Q01DX001 (ip), vehicle: saline 93 % of control

O=C1C(Br)CS(=O)(=O)CC1Br (stereo not given)
inactive: dose: 6.25 mg/kg/injection, schedule: Q01DX009 (ip), vehicle: saline 96 % of control | dose: 8.75 mg/kg/injection, schedule: Q01DX009 (ip), vehicle: saline 106 % of control | [9] 86 % of control | dose: 12.5 mg/kg/injection, schedule: Q04DX003 (ip), vehicle: Klucel (hydroxypropylcellulose) (HPC) 96 % of control | dose: 15.0 mg/kg/injection, schedule: Q01DX001 (ip), vehicle: carboxymethylcellulose (CMC) 102 % of control | dose: 17.5 mg/kg/injection, schedule: Q01DX009 (ip), vehicle: saline 98 % of control | [10] 91 % of control | dose: 25.0 mg/kg/injection, schedule: Q04DX003 (ip), vehicle: Klucel (hydroxypropylcellulose) (HPC) 94 % of control | dose: 30.0 mg/kg/injection, schedule: Q01DX001 (ip), vehicle: carboxymethylcellulose (CMC) 106 % of control

CC(=O)OC1CC2C(C)(C)C(=O)C3OC3C2(C)C2CCC3(C)C(=CC(=O)OC3c3ccoc3)C12C (stereo not given)
inactive: dose: 100.0 mg/kg/injection, schedule: Q01DX001 (sc), vehicle: steriod suspending solution 101 % of control | dose: 200.0 mg/kg/injection, schedule: Q01DX001 (sc), vehicle: steriod suspending solution 104 % of control | dose: 400.0 mg/kg/injection, schedule: Q01DX001 (sc), vehicle: steriod suspending solution 103 % of control

O=C1C(=O)c2ccccc2C=C1Br
inactive: [7] 94 % of control | [8] 95 % of control

O=C(O)COc1ccc2ccccc2c1Cl
inactive: dose: 100.0 mg/kg/injection, schedule: Q04DX002 (ip), vehicle: Klucel (hydroxypropylcellulose) (HPC) 86 % of control | dose: 200.0 mg/kg/injection, schedule: Q04DX002 (ip), vehicle: Klucel (hydroxypropylcellulose) (HPC) 89 % of control | dose: 400.0 mg/kg/injection, schedule: Q04DX002 (ip), vehicle: Klucel (hydroxypropylcellulose) (HPC) 92 % of control

CC1(C)N=C(N)N=C(N)N1c1cccc(CC(=O)Nc2ccccc2)c1
inactive: [9] 102 % of control | [10] 98 % of control | dose: 50.0 mg/kg/injection, schedule: Q01DX009 (ip), vehicle: saline 102 % of control | dose: 100.0 mg/kg/injection, schedule: Q01DX009 (ip), vehicle: saline 96 % of control | dose: 200.0 mg/kg/injection, schedule: Q01DX009 (ip), vehicle: saline 98 % of control
